Data: PubChem BioAssay (NCI)
“And” between values parts separate entries of the source, which are not always exact repeats. Identical values can stand only once.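 Results reflect a 48-hour exposure of cells in 96-well plates to compound at five concentrations. At the GI50, growth is halved. TGI denotes the concentration required for complete inhibition of growth.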

Columns and labels:
Test in all cases: NCI anticancer screen, dose series, 48 h
[1] = system: CAKI-1 renal
[2] = system: HS 578T breast
[3] = system: NCI-H23 lung
[4] = system: NCI/ADR-RES ovarian
[5] = system: OVCAR-4 ovarian
[6] = system: PC-3 prostate
[7] = system: SF-268 CNS
[8] = system: SF-539 CNS
[9] = system: SK-MEL-28 melanoma
[10] = system: UACC-257 melanoma

SMILES | GI50 [1] | TGI [1] | GI50 [2] | TGI [2] | GI50 [3] | TGI [3] | GI50 [4] | TGI [4] | GI50 [5] | TGI [5] | GI50 [6] | TGI [6] | GI50 [7] | TGI [7] | GI50 [8] | TGI [8] | GI50 [9] | TGI [9] | GI50 [10] | TGI [10]
COc1cccc(-c2cc3c4c(nc5ccccc53)C(=O)c3cccnc3-c4n2)c1 | 3.36 µM | 11.5 µM | 3.18 µM | 11.2 µM | 1.47 µM | 4.28 µM | 2.22 µM | 7.92 µM | 1.94 µM | 8.5 µM | 2.73 µM | 12.8 µM | 3.27 µM | 14.9 µM | 3.28 µM | 10.3 µM | 10.2 µM | 22.3 µM | 1.06 µM | 4.33 µM
NCCN.O=C([O-])CN1CCOCC1.[OH-].[Pt+4] | > 100 µM | > 100 µM | > 100 µM | > 100 µM | 60.9 µM | > 100 µM | > 100 µM | > 100 µM | > 100 µM | > 100 µM | > 100 µM | > 100 µM | > 100 µM | > 100 µM | > 100 µM | > 100 µM | > 100 µM | > 100 µM | > 100 µM | > 100 µM
Cc1cn2c(/C=C3/C(=O)Nc4ccc(O)cc43)c(C)nc2s1 | 3.28 µM | 19.8 µM | 2.68 µM | 18.2 µM | 7.12 µM | > 68.9 µM | 20.9 µM | > 70.6 µM | > 51.4 µM | > 100 µM | 2.11 µM | 37.2 µM | 3.42 µM | 56.8 µM | 2.42 µM | 9.16 µM | 8.44 µM | > 100 µM | 7.85 µM | > 47.1 µM
C=C1CC[C@@H]2[C@](C)(COC(C)=O)[C@H](OC(C)=O)CC[C@@]2(C)[C@@H]1CC(Nc1ccc(S(=O)(=O)Nc2ccc(Cl)nn2)cc1)C1=CCOC1=O (stereo not given in full) | 2.28 µM | 10 µM | 6.17 µM | > 100 µM | 2.06 µM | 5.35 µM | 1.87 µM | 6.2 µM | 1.47 µM | 3.17 µM | 2.24 µM | 5.25 µM | 1.8 µM | 3.67 µM | 1.23 µM | 2.63 µM | 1.68 µM | 3.46 µM | 1.67 µM | 3.89 µM
O=c1c(O)c(-c2ccc(O)c(O)c2)oc2cc(O)cc(O)c12 | 20.4 µM | > 100 µM | 4.12 µM | > 50.7 µM | 9.65 µM | 50 µM | 12.8 µM | 63.8 µM | 33.3 µM | > 100 µM | 18.7 µM | > 100 µM | 10.2 µM | 75.5 µM and > 100 µM | 6.04 µM | 37.2 µM and > 100 µM | 17.9 µM | > 100 µM | 37.4 µM | > 100 µM
COc1ccccc1CNCCCN1C(=O)c2ccc3c4c(ccc(c24)C1=O)C(=O)N(CCCN)C3=O | 1.76 µM | 4.73 µM | 1.96 µM | 6.95 µM | 0.94 µM | 3.74 µM | 2.86 µM | 9.6 µM | 0.23 µM | 0.843 µM | 1.68 µM | 4.95 µM | 1.22 µM | 3.94 µM | 1.21 µM | 2.5 µM | 1.74 µM | 3.75 µM | 0.74 µM | 2.27 µM
CC1=C(CCC(C)NCc2ccc(OCCCN3CCCCC3)cc2)C(C)(C)CCC1 (stereo not given) | 1.82 µM | 3.92 µM | 1.61 µM | 3.79 µM | 1.73 µM | 3.82 µM | 1.72 µM | 3.47 µM | 1.99 µM | 5.5 µM | 1.54 µM | 3.42 µM | 1.49 µM | 3.08 µM | 1.64 µM | 3.22 µM | 1.38 µM | 2.83 µM | 2.2 µM | 4.03 µM
Cc1nn(C)c(COc2ccc(N3CCN(S(=O)(=O)N(C)C)CC3)cc2)c1-c1cccc2c(CCCOc3cccc4ccccc34)c(C(=O)O)n(CCN3CCOCC3)c12 | 11.4 µM | 23.9 µM | 2.95 µM | 14.7 µM | 3.54 µM | 14.7 µM | 36.5 µM | > 100 µM | 3.4 µM | 14.1 µM | 3.27 µM | 10.7 µM | 3.66 µM | 15.8 µM | 2.44 µM | 6.17 µM | 2.07 µM | 4.87 µM | 2.91 µM | 9.52 µM
N#Cc1nc2c(S(=O)(=O)c3ccc(Cl)cc3)c(N)n(CCCN3CCOCC3)c2nc1C#N | 2.64 µM | 13.8 µM | 1.76 µM | 5.06 µM | 7.41 µM | 42.7 µM | 33.2 µM | > 100 µM | 4.78 µM | > 100 µM | 26.7 µM | 95.4 µM | 5.19 µM | 35.4 µM | 2.31 µM | 7.9 µM | 4.11 µM | 15.7 µM | 5.91 µM | 22.7 µM
Cc1ccc(C(=O)NC2CCC2)cc1-c1ccc(C(=O)NCC2CC2)cc1 | > 25 µM | > 25 µM | > 25 µM | > 25 µM | > 25 µM | > 25 µM | > 25 µM | > 25 µM | > 25 µM | > 25 µM | > 25 µM | > 25 µM | > 25 µM | > 25 µM | > 25 µM | > 25 µM | > 25 µM | > 25 µM | > 25 µM | > 25 µM
O=S(=O)(c1cccc2c(I)cccc12)N1CCCNCC1 | 19.2 µM | 37.8 µM | 15.4 µM | 39.5 µM | 17 µM | 34 µM | 20.2 µM | 43.5 µM | 18.6 µM | 38.4 µM | 14.9 µM | 32.8 µM | 26.6 µM | > 100 µM | 15.7 µM | 32.8 µM | 21.6 µM | 44.2 µM | 23.1 µM | 43.2 µM
Nc1c(C(=O)c2cccc(-c3cccnc3)c2)cnn1-c1ccc(F)cc1F | 4.53 µM | > 25 µM | 7.44 µM | > 25 µM | 4.41 µM | > 25 µM | 1.2 µM | > 21.9 µM | 7.77 µM | > 25 µM | 5.12 µM | > 25 µM | 10.8 µM | > 25 µM | 8.32 µM | > 25 µM | 10.1 µM | > 25 µM | 6.28 µM | > 25 µM
COc1ccc(CC(=O)c2ccc(O)cc2O)cc1 | 59.6 µM | > 100 µM | > 100 µM | > 100 µM | 63.5 µM | > 100 µM | 58.8 µM | > 100 µM | > 100 µM | > 100 µM | 41.1 µM | > 100 µM | 94.5 µM | > 100 µM | > 100 µM | > 100 µM | > 100 µM | > 100 µM | > 100 µM | > 100 µM
COC(=O)Nc1nc2ccc(Oc3cccc(NC(=O)Nc4cc(C(F)(F)F)ccc4F)c3)cc2[nH]1 | 14.3 µM | > 25 µM | 7.47 µM | > 25 µM | 11.3 µM | > 25 µM | 24.8 µM | > 25 µM | 17.6 µM | > 25 µM | 14.3 µM | > 25 µM | 18.5 µM | > 25 µM | > 21.6 µM | > 25 µM | 11.3 µM | > 25 µM | > 23.7 µM | > 25 µM
CC[C@H](CO)Nc1nc(NCc2ccccc2)c2ncn(C(C)C)c2n1 | 10.9 µM | > 100 µM | 20.8 µM | 68.2 µM |  | 41.9 µM | 10.9 µM | 56.6 µM | 26.8 µM | > 88.5 µM |  | 70 µM |  | > 75.1 µM |  | 53.6 µM | 21.5 µM | 74.9 µM |  | 98.7 µM
O=C1c2ccc3c4c(ccc(c24)C(=O)N1CCCNCc1ccccc1Cl)C(=O)N(CCCNCc1ccccc1Cl)C3=O | 0.317 µM | 1.46 µM | 0.984 µM | 11.9 µM | 0.217 µM | 0.86 µM | 0.142 µM | 0.456 µM | 0.0891 µM | 0.182 µM | 0.268 µM | 1.56 µM | 0.477 µM | 1.49 µM | 0.669 µM | 1.38 µM | 0.776 µM | 1.48 µM | 0.125 µM | 0.334 µM
Cc1nn(-c2ccc(Cl)cc2)c2nc3c(nc12)C(=O)C(=O)c1ccccc1-3 | 7.93 µM | > 100 µM | 2.08 µM | 5.5 µM | 1.71 µM | 3.88 µM | 3.92 µM | > 100 µM | 6.08 µM | > 100 µM | 2.31 µM | > 100 µM | 12.4 µM | > 100 µM | 3.14 µM | 9.3 µM | 7.76 µM | 74.8 µM | 3.24 µM | 11.9 µM
C#CCNCCN1C(=O)c2ccc3c4c(ccc(c24)C1=O)C(=O)N(CCNCC#C)C3=O | 5.05 µM | 15.6 µM | 8.35 µM | 29.2 µM | 3.56 µM | 15.6 µM | 4.07 µM | 24.4 µM | 1.96 µM | 7.47 µM | 7.09 µM | 21.2 µM | 3.78 µM | 24.2 µM | 4.76 µM | 11.2 µM | 10.4 µM | 27.6 µM | 3.08 µM | 9.65 µM
C=C1c2ccoc2C[C@H]2[C@H]1CC[C@@]1(O)[C@@](C)(C(=O)OC)CCC[C@]21C | 50.2 µM | > 100 µM | 71.9 µM | > 100 µM | 44.4 µM | > 100 µM | 42.5 µM | > 100 µM | 86.5 µM | > 100 µM | 27.6 µM | > 100 µM | 22.7 µM | 73.5 µM | 69.3 µM | > 100 µM | 54.2 µM | > 100 µM | 35.7 µM | > 100 µM
CCN1C(=O)N(CC)C2C1NN=c1s/c(=C\c3ccccn3)c(=O)n12 (stereo not given) | 0.752 µM | > 100 µM | 2.76 µM | > 100 µM | 3.82 µM | > 100 µM | 0.977 µM | > 100 µM | > 100 µM | > 100 µM | 1.79 µM | > 100 µM | 88.5 µM | > 100 µM | 1.74 µM | 7.9 µM | 4.95 µM | > 100 µM | > 100 µM | > 100 µM
Cc1[nH]c(=O)nc(Nc2ccc(Cl)cc2)c1C(=O)N1CCN(CCO)CC1 | > 100 µM | > 100 µM | 34.2 µM | > 100 µM | 76 µM | > 100 µM | > 100 µM | > 100 µM | > 100 µM | > 100 µM | > 100 µM | > 100 µM | 65 µM | > 100 µM | 75.9 µM | > 100 µM | > 100 µM | > 100 µM | > 100 µM | > 100 µM
Cc1nn(-c2ccc([N+](=O)[O-])cc2)c2ncnc(N/N=C/c3ccccc3O)c12 | 0.496 µM | 1.82 µM | 1.43 µM | 8.27 µM | 0.864 µM | 3.76 µM | 0.337 µM | 3.66 µM | 0.202 µM | 4.62 µM | 0.587 µM | > 100 µM | 0.313 µM | > 100 µM | 0.424 µM | 1.77 µM | 0.443 µM | 5.53 µM | 1.47 µM | 8.56 µM
CN1CCc2[nH]nc(-c3n[nH]c4c3CN(C)CC4)c2C1 |  | > 100 µM |  | > 100 µM |  | > 100 µM |  | > 100 µM |  | > 100 µM |  | > 100 µM |  | > 100 µM |  | > 100 µM |  | > 100 µM |  | > 100 µM
Nc1c(C(=O)c2cccc(C#CCO)c2)cnn1-c1ccc(F)cc1 | > 25 µM | > 25 µM | 5.18 µM | > 25 µM | > 25 µM | > 25 µM | > 25 µM | > 25 µM | > 23.3 µM | > 25 µM | > 25 µM | > 25 µM | > 25 µM | > 25 µM | > 25 µM | > 25 µM | > 25 µM | > 25 µM | > 25 µM | > 25 µM
